Measured values: patent US10174015B2, “Substituted heterocyclic derivative, preparation method and use thereof” (Xiamen University, priority 2014, dated 2019)
Like-named read-outs stand apart in the source and are kept apart here. Marks after values point to notes of the source that are not given here.

Assays:
[1] = system: adjuvant-induced arthritis rat models; assay: Adjuvant-induced osteoarthritis pain, foot swelling degree; format: in vivo, rats; conditions: 10 mg/Kg; for Foot swelling degree after inflammation: X ± S, n = 10; for effect of inhibiting osteoarthritis pain: rats, indometacin 10 mg/Kg
Protocol: Typical model for studying inflammatory pain medically was used to evaluate the therapeutic effects of compounds on inflammatory pain. 0.1 mL Freund's complete adjuvant was intradermally injected to toe of the left hind foot of the rats in each group to obtain adjuvant-induced arthritis rat models. Foot volume method was used to measure primary and secondary foot swelling degree (swelling degree=volume after inflammation−volume before inflammation), and polyarticular arthritis were scored (5 scoring grades: 0 represents no red swelling; 4 represents red swelling at all the paws including anklebone. The scores are accumulated according to the lesion degree of the rest three limbs not injected with adjuvant, and the highest score is 12). Before inflammation and at 6 h, 12 h, 18 h and 24 h after inflammation, Paw Volume Meter was used to measure the foot volume at the inflammatory side, and the swelling degree was calculated. The model can represent inflammatory pain including, but not only limited to: osteoarthritis pain and fibromyalgia syndrome, inflammatory pain of rheumatic and rheumatoid arthritis, inflammatory pain of endometriosis, inflammatory toothache, ankylosing spondylitis pain, and gouty arthritis pain.

RAW264.7 cells = assay: Assay on cytotoxicity (CCK8); format: cell-based; conditions: RAW264.7 cells, 3, 10, 30, 100 μM, 24 h and 48 h; compound 9 except at 100 μM
Protocol: RAW264.7 cells in good growing state (purchased from American Type Culture Collection, ATCC, Beijing), at a density of about 80%-90%, were scraped off with a cell scraper to prepare a cell suspension. After counting, the cells were accurately seeded in a 96-well plate, at 100 μL per well, wherein the total number of cells retained the same, at about 20000 cells/well, and the same amount of culture medium (which was DMEM (Gibco, Shanghai) medium containing 10% fetal bovine serum (PAA), 1% penicillin-streptomycin (PAA)) was added. The 96-well plate was placed in an incubator to preincubate for 24 h (37° C., 5% CO2). The marginal wells of the plate were filled with an equal amount of PBS, but were not seeded with cells, so as to prevent evaporation of the culture medium in the experimental group. […] After incubating the plate in the incubator for a period of time (24 or 48 h), 10 μL CCK8 solution was added to each well, and then the plate was incubated in incubator for 1.5 h. the absorbance OD value was determined at 450 nm by microplate reader, and the OD value was proportional to the number of living cells. […]

[2] = Stability assay in rat plasma; format: in vitro ADME; conditions: 37° C.
Protocol: To each of several tubes sub-packaged with rat plasma, PBS solution was added in a volume equal to a quarter of plasma volume, and the resultant mixture was mixed well. […] At different time points (0, 10, 30, 60, 120, 240, 360, 720, 1440 min), 50 μL plasma sample was taken and added to 150 μL precooled methanol (containing the internal standard compound E8, with a structure of
[drawing 117] and a name of 1-(2-Biphenyl-4-yl)ethyl-carbonyl pyrrolidine, 1 nmol/sample), wherein three parallel samples were prepared for each time point. The samples were then vertically mixed well, and centrifuged at 4° C., 12000 g for 10 min. The supernatant was transferred to a sample vial. LC-MS/MS was used to measure the peak area at different time points, Analyst® version 1.4.1. software was used to analyze chromatographic peak, and the content of the target compound was calculated by virtue of the standard curve.

zebrafish embryos = format: in vivo; conditions: for Death number (72 h): n = 30; for Body length (72 h) / Hatching number (72 h) / Heartbeat (72 h) / Unhatching number (72 h) / hatching rate: zebrafish, in vivo, 72 h
Protocol: Fertilized eggs (donated by Zebrafish Research Group, School of Life Sciences, Xiamen University) were incubated in freshly prepared zebrafish embryo culture medium, which was replaced by fresh culture medium every day, and cultured in 28.5° C. incubator. Pure water was placed in the incubator to ensure a certain humidity in the culture environment. The formulation for zebrafish embryo culture medium was following: 5 mM NaCl, 0.17 mM KCl, 0.33 mM CaCl2, 0.33 mM MgSO4, 10-5% methylene blue. The culture medium was prepared with pure water. For example, NaCl: 292.2 mg, KCl: 12.68 mg, CaCl2: 36.63 mg, MgSO4: 39.72 mg, and methylene blue: 0.1 μL were needed for the preparation of 1 L culture medium.
7 Groups were set for each test compound, including 5 experimental groups relating to the test compound at different concentrations (solutions containing the test compound at different concentrations were prepared by using zebrafish embryo culture medium, wherein the concentrations were 10 mg/L, 3 mg/L, 1 mg/L, 0.3 mg/L, 0.1 mg/L), 1 solvent control group (DMSO) and 1 blank control group. The positive control drug was OTC analgesic ibuprofen at concentrations as described above. A 96-well cell culture plate was used to perform the experiment, three wells in parallel were used for each experimental group, and 10 fish eggs were contained in each well.
Culture medium containing a test compound was prepared, and the culture medium was added to a 96-well plate in advance, and each fertilized egg (by reference to the experimental method in OECD No. 212 document, fertilized eggs, which developed normally within 2 h after fertilization, were selected and subjected to exposure. Transparent fish eggs visible to naked eye were normally fertilized, while white fish eggs were dead and discarded. After the selection, the normally fertilized eggs had begun to divide as observed under microscope) was then independently placed in a different well, and cultured in the culture medium containing a test compound at a different concentration. Embryo development status at different stages was observed and photographed with invert microscope, including: […]
II. Hatching number and death number were counted at 72 h after fertilization, and hatching rate and mortality were calculated; […]
V. Heartbeat of young fishes (times/min) was recorded at 72 h and 96 h after fertilization (Recording method: heartbeat of young fishes could be clearly observed under microscope, and the number of heartbeats was recorded for 30 s).

Structure (SMILES) | Foot swelling degree after inflammation ([1]; 6 h) | Foot swelling degree after inflammation ([1]; 12 h) | Foot swelling degree after inflammation ([1]; 18 h) | Foot swelling degree after inflammation ([1]; 24 h) | effect of inhibiting osteoarthritis pain [1] | effect on cell viability (RAW264.7 cells) | half-life at 2 μM [2] | Death number (72 h) (zebrafish embryos; 0.1 mg/L) | Death number (72 h) (zebrafish embryos; 0.3 mg/L) | Death number (72 h) (zebrafish embryos; 1 mg/L) | Death number (72 h) (zebrafish embryos; 3 mg/L) | Death number (72 h) (zebrafish embryos; 10 mg/L) | Body length (72 h) (zebrafish embryos; 0.1 mg/L) | Hatching number (72 h) (zebrafish embryos; 0.1 mg/L) | Heartbeat (72 h) (zebrafish embryos; 0.1 mg/L) | Unhatching number (72 h) (zebrafish embryos; 0.1 mg/L) | Body length (72 h) (zebrafish embryos; 0.3 mg/L) | Hatching number (72 h) (zebrafish embryos; 0.3 mg/L) | Heartbeat (72 h) (zebrafish embryos; 0.3 mg/L) | Unhatching number (72 h) (zebrafish embryos; 0.3 mg/L) | other results
O=C(CCCCCc1ccccc1)N1CCOC1=O [Compound 2, Phenylhexanoyl Oxazolidinone] | 0.35 ± 0.07^c mL | 0.65 ± 0.13^c mL | 1.06 ± 0.14^c mL | 0.89 ± 0.21^c mL | significant effects of inhibiting osteoarthritis pain | no effect on cell viability | 3.13 h | 3 | 2 | 1 | 30 | 30 | 3.86 ± 0.05 mm | 27 | 130 ± 3.00 per min | 0 | 3.87 ± 0.05 mm | 28 | 130 ± 3.58 per min | 0 | Body length (72 h) (zebrafish embryos; 1 mg/L): 3.85 ± 0.06 mm; Hatching number (72 h) (zebrafish embryos; 1 mg/L): 29; Heartbeat (72 h) (zebrafish embryos; 1 mg/L): 128 ± 3.29 per min; Unhatching number (72 h) (zebrafish embryos; 1 mg/L): 0; hatching rate (zebrafish embryos; 1 mg/L): 96.67%; Hatching number (72 h) (zebrafish embryos; 3 mg/L): 0; Unhatching number (72 h) (zebrafish embryos; 3 mg/L): 0; Hatching number (72 h) (zebrafish embryos; 10 mg/L): 0; Unhatching number (72 h) (zebrafish embryos; 10 mg/L): 0
O=C(CCCCCc1cccc(Cl)c1)N1CCOC1=O [Compound 9, 3-Chlorophenylhexanoyl Oxazolidinone] | 0.44 ± 0.09^c mL | 0.75 ± 0.24^c mL | 1.24 ± 0.24^b mL | 1.06 ± 0.18^c mL | significant effects of inhibiting osteoarthritis pain | no effect on cell viability | 2.72 h | 2 | 2 | 3 | 30 | 30 | 3.90 ± 0.05 mm | 28 | 129 ± 2.73 per min | 0 | 3.86 ± 0.03 mm | 28 | 130 ± 3.22 per min | 0 | Body length (72 h) (zebrafish embryos; 1 mg/L): 3.88 ± 0.04 mm; Hatching number (72 h) (zebrafish embryos; 1 mg/L): 27; Heartbeat (72 h) (zebrafish embryos; 1 mg/L): 130 ± 2.76 per min; Unhatching number (72 h) (zebrafish embryos; 1 mg/L): 0; hatching rate (zebrafish embryos; 1 mg/L): 90%; Hatching number (72 h) (zebrafish embryos; 3 mg/L): 0; Unhatching number (72 h) (zebrafish embryos; 3 mg/L): 0; Hatching number (72 h) (zebrafish embryos; 10 mg/L): 0; Unhatching number (72 h) (zebrafish embryos; 10 mg/L): 0
